Measured values: patent US10538491B2, “4,5-substituted picolinamide and picolinonitrile metabotropic glutamate receptor 2 negative allosteric modulators” (Vanderbilt University, priority 2015, dated 2020)

Biological target: rat mGlu2 (Rattus norvegicus (Rat), UniProt P31421)
Assay: mGlu2 Ca2+ flux assay
Type: cell-based
Conditions: for IC50: Gα15 HEK293 cells stably expressing rat mGlu2, glutamate EC80, >10,000 = no plateau, >30,000 = no measurable activity; for remaining activity at 30 µM / rat mGlu2 Glu max: amplitude of response in the presence of 30 μM test compound as percentage of maximal response to glutamate; for remaining activity at 30 µM: read-out: rat mGlu2 Glu max; for NAM designation: concentration-dependent decrease in the glutamate EC80 response
Procedure: Gα15 HEK293 cells stably expressing rat mGlu2 were plated in black-walled, clear-bottomed, poly-D-lysine coated 384-well plates in 20 μL of assay medium (DMEM containing 10% dialyzed FBS, 20 mM HEPES, and 1 mM sodium pyruvate) at a density of 12K cells/well. The cells were grown overnight at 37° C. in the presence of 5% CO2. The next day, medium was removed and the cells incubated with 20 μL of 2.3 μM Fluo-4, AM prepared as a 2.3 mM stock in DMSO and mixed in a 1:1 ratio with 10% (w/v) pluronic acid F-127 and diluted in assay buffer (Hank's balanced salt solution, 20 mM HEPES, and 2.5 mM probenecid) for 45 minutes at 37° C. Dye was removed, 20 μL of assay buffer was added, and the plate was incubated for 5 minutes at room temperature.
Ca^2+ flux was measured using the Functional Drug Screening System (FDSS7000, Hamamatsu, Japan). After establishment of a fluorescence baseline for about 3 seconds, the compounds of the present invention were added to the cells, and the response in cells was measured. 2.3 minutes later an EC20 concentration of the mGlu2 receptor agonist glutamate was added to the cells, and the response of the cells was measured for 1.9 minutes; an EC80 concentration of agonist was added and readings taken for an additional 1.7 minutes. All test compounds were dissolved and diluted to a concentration of 10 mM in 100% DMSO. Compounds were then serially diluted 1:3 in DMSO into 10 point concentration response curves, transferred to daughter plates, and further diluted into assay buffer to a 2× stock. Calcium fluorescence measures were recorded as fold over basal fluorescence; raw data was then normalized to the maximal response to glutamate. Antagonism of the agonist response of the mGlu2 receptor in the present invention was observed as a decrease in response to nearly maximal concentrations of glutamate in the presence of compound compared to the response to glutamate in the absence of compound.
The raw data file containing all time points was used as the data source in the analysis template. This was saved by the FDSS as a tab-delimited text file. Data were normalized using a static ratio function (F/F0) for each measurement of the total 360 values per well divided by each well's initial value. Data were then reduced to peak amplitudes (Max−Initial Min) using a time range that starts approximately 3 seconds prior to the glutamate EC80 addition and continues for approximately 90 seconds. This is sufficient time to capture the peak amplitude of the cellular calcium response. Individual amplitudes were expressed as % ECMax by multiplying each amplitude by 100 and then dividing the product by the mean of the amplitudes derived from the glutamate ECMax-treated wells. IC50 values for test compounds were generated by fitting the normalized values versus the log of the test compound concentration (in mol/L) using a 4 parameter logistic equation where none of the parameters were fixed. Each of the three values collected at each concentration of test compound were weighted evenly.
For NAMs, potency (IC50) and maximum response (% Glu Max), i.e. the amplitude of response in the presence of 30 μM test compound as a percentage of the maximal response to glutamate, are reported. […] Compounds with no measurable activity are designated as “>30,000 nM” since the top concentration of compound tested in the assay is 30 μM.

Sequence of rat mGlu2 (P31421 19-872): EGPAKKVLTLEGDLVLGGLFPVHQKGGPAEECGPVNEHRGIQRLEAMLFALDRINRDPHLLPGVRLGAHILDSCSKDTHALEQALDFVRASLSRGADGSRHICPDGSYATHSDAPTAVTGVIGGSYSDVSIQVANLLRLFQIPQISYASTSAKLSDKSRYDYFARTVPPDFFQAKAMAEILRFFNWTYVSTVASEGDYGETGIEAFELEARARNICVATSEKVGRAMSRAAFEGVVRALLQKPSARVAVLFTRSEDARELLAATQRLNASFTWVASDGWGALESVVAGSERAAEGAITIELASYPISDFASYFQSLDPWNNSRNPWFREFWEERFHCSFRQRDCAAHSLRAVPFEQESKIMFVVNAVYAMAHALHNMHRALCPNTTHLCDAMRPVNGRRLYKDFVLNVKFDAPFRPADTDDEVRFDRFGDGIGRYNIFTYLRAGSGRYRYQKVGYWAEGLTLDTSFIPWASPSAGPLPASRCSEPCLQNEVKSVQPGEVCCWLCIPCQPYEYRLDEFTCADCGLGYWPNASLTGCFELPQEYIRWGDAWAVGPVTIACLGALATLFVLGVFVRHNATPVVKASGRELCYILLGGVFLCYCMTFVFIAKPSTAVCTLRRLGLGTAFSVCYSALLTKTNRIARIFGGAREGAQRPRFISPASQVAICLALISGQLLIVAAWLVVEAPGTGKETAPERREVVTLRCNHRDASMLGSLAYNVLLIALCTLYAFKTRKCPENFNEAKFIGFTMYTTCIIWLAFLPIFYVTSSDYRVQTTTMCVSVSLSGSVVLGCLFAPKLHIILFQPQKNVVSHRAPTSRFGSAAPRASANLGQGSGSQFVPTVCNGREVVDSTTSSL

SMILES | IC50 [nM] | remaining activity at 30 µM [%] | NAM designation | rat mGlu2 Glu max [%]
NC(=O)c1cc(-c2ccc(F)cc2)c(OCc2cc(F)cc(F)c2)cn1 [Compound 30, 5-((3,5-difluorobenzyl)oxy)-4-(4-fluorophenyl)picolinamide] | 401 | 18.7 | (Partial NAM) | –
N#Cc1ccc(F)c(OCCOc2cnc(C(N)=O)cc2-c2ccc(F)cc2)c1 [Compound 156, 5-(2-(5-cyano-2-fluorophenoxy)ethoxy)-4-(4-fluorophenyl)picolinamide] | 4230 | -21.7 | – | –
Cc1ccc(OC(C)COc2cnc(C(N)=O)cc2-c2ccc(F)cc2)cn1 (stereo not drawn) [Compound 121, 4-(4-fluorophenyl)-5-(2-((6-methylpyridin-3-yl)oxy)propoxy)picolinamide] | 2130 | 1.66 | – | –
NC(=O)c1cc(-c2ccc(F)cc2)c(OCCOc2cncc(Br)c2)cn1 [Compound 111, 5-(2-((5-bromopyridin-3-yl)oxy)ethoxy)-4-(4-fluorophenyl)picolinamide] | 624 | 1.34 | – | –
NC(=O)c1cc(-c2ccc(F)cc2)c(OCCN2CCOCC2)cn1 [Compound 94, 4-(4-fluorophenyl)-5-(2-morpholinoethoxy)picolinamide] | > 10000 | 49 | – | –
NC(=O)c1cc(-c2ccc(F)cc2)c(OCCOc2cncc(F)c2)cn1 [Compound 112] | 827 | – | – | 0.05
NC(=O)c1cc(-c2ccc(F)cc2)c(OCc2cc(Br)ccc2F)cn1 [Compound 36, 5-((5-bromo-2-fluorobenzyl)oxy)-4-(4-fluorophenyl)picolinamide] | 650 | 3.82 | – | –
NC(=O)c1cc(-c2ccc(F)cc2)c(OCCOc2ccnc(C(F)(F)F)c2)cn1 [Compound 116, 4-(4-fluorophenyl)-5-(2-((2-(trifluoromethyl)pyridin-4-yl)oxy)ethoxy)picolinamide] | 242 ± 83 | 1.51 ± 0.16 | – | –
COc1ccc(-c2cc(C(N)=O)ncc2OCc2cccnc2)c(F)c1 [Compound 39, 4-(2-fluoro-4-methoxyphenyl)-5-(pyridin-3-ylmethoxy)picolinamide] | 39 | 1.36 | – | –
N#Cc1ccccc1COc1cnc(C(N)=O)cc1-c1ccc(F)cc1 [Compound 150, 5-((2-cyanobenzyl)oxy)-4-(4-fluorophenyl)picolinamide] | 98 | 1.14 | – | –
CC(COc1cnc(C#N)cc1-c1ccc(F)cc1)Oc1ccnc(C(F)(F)F)c1 (stereo not drawn) [Compound 63, 4-(4-fluorophenyl)-5-(2-((2-(trifluoromethyl)pyridin-4-yl)oxy)propoxy)picolinonitrile] | > 10000 | 30.7 | – | –
Cc1cc(COc2cnc(C#N)cc2-c2ccc(F)cc2)ccn1 [Compound 18, 4-(4-fluorophenyl)-5-((2-methylpyridin-4-yl)methoxy)picolinonitrile] | 2690 | 47.5 | (Partial NAM) | –
NC(=O)c1cc(-c2ccc(C(F)(F)F)nc2)c(OCc2cccnc2)cn1 [Compound 40, 5′-(pyridin-3-ylmethoxy)-6-(trifluoromethyl)[3,4′-bipyridine]-2′-carboxamide] | > 30000 | – | – | –
CC(Oc1cnc(C(N)=O)cc1-c1ccc(F)cc1)c1ccncc1 (stereo not drawn) [Compound 48, 4-(4-fluorophenyl)-5-(1-(pyridin-4-yl)ethoxy)picolinamide] | 504 | 1.4 | – | –
N#Cc1cc(-c2ccc(F)cc2)c(NCCN2CCOCC2)cn1 [Compound 2, 4-(4-fluorophenyl)-5-((2-morpholinoethyl)amino)picolinonitrile] | > 10000 | 47.5 | – | –
NC(=O)c1cc(-c2ccc(F)cc2)c(OCCCOc2ccc(C(F)(F)F)nc2)cn1 [Compound 126] | 2940 | – | – | 5.52

SMILES | IC50 [nM] | remaining activity at 30 µM [%] | NAM designation | rat mGlu2 Glu max [%]
N#Cc1cc(-c2ccc(F)cc2)c(OC2CCN(c3ccnc(C(F)(F)F)c3)CC2)cn1 [Compound 26, 4-(4-fluorophenyl)-5-((1-(2-(trifluoromethyl)pyridin-4-yl)piperidin-4-yl)oxy)picolinonitrile] | > 30000 | – | – | –
Cn1cc(COc2cnc(C(N)=O)cc2-c2ccc(F)cc2)cn1 [Compound 53, 4-(4-fluorophenyl)-5-((1-methyl-1H-pyrazol-4-yl)methoxy)picolinamide] | 1000 | -0.46 | – | –
Cn1ccc(COc2cnc(C(N)=O)cc2-c2ccc(F)cc2)n1 [Compound 52, 4-(4-fluorophenyl)-5-((1-methyl-1H-pyrazol-3-yl)methoxy)picolinamide] | 66 | 0.93 | – | –
C[C@@H]1CN(CCOc2cnc(C(N)=O)cc2-c2ccc(F)cc2)C[C@H](C)O1 [Compound 95, 5-(2-((cis)-2,6-dimethylmorpholino)ethoxy)-4-(4-fluorophenyl)picolinamide] | > 10000 | 22.8 | – | –
NC(=O)c1cc(-c2ccc(F)cc2)c(OCc2ccccc2Br)cn1 [Compound 35, 5-((2-bromobenzyl)oxy)-4-(4-fluorophenyl)picolinamide] | 1110 | 1.55 | – | –
NC(=O)c1cc(-c2ccc(F)cc2)c(OC2CN(c3ccnc(C(F)(F)F)c3)C2)cn1 [Compound 58, 4-(4-fluorophenyl)-5-((1-(2-(trifluoromethyl)pyridin-4-yl)azetidin-3-yl)oxy)picolinamide] | 4140 | 4.3 | – | –
Cc1ccc(COc2cnc(C(N)=O)cc2-c2ccc(F)cc2)cn1 [Compound 41, 4-(4-fluorophenyl)-5-((6-methylpyridin-3-yl)methoxy)picolinamide] | 343 | 1.59 | – | –
NC(=O)c1cc(-c2ccc(F)cc2)c(N2CCC(Oc3cccnc3)CC2)cn1 [Compound 140, 4-(4-fluorophenyl)-5-(4-(pyridin-3-yloxy)piperidin-1-yl)picolinamide] | > 10000 | 29.8 | – | –
NC(=O)c1cc(-c2ccc(F)cc2)c(OC2CCN(c3ccnc(C(F)(F)F)c3)CC2)cn1 [Compound 56, 4-(4-fluorophenyl)-5-((1-(2-(trifluoromethyl)pyridin-4-yl)piperidin-4-yl)oxy)picolinamide] | 4190 | 4.5 | – | –
CN(CCN1CCOCC1)c1cnc(C(N)=O)cc1-c1ccc(F)cc1 [Compound 136, 4-(4-fluorophenyl)-5-(methyl(2-morpholinoethyl)amino)picolinamide] | > 10000 | 31 | – | –
NC(=O)c1cc(-c2ccc(F)cc2)c(OCCCN2CCOCC2)cn1 [Compound 100, 4-(4-fluorophenyl)-5-(3-morpholinopropoxy)picolinamide] | > 10000 | 46.8 | – | –
COc1ccc(-c2cc(C(N)=O)ncc2OCc2cc(F)cc(F)c2)c(F)c1 [Compound 31, 5-((3,5-difluorobenzyl)oxy)-4-(2-fluoro-4-methoxyphenyl)picolinamide] | 395 | 1.46 | (Partial NAM) | –
N#Cc1cc(-c2ccc(F)cc2)c(OCc2ccc3nccn3c2)cn1 [Compound 21, 4-(4-fluorophenyl)-5-(imidazo[1,2-a]pyridin-6-ylmethoxy)picolinonitrile] | 3490 | 16.1 | – | –
N#Cc1cc(-c2ccc(F)cc2)c(OCc2cccnc2)cn1 [Compound 10, 4-(4-fluorophenyl)-5-(pyridin-3-ylmethoxy)picolinonitrile] | > 10000 | 37 | – | –
NC(=O)c1cc(-c2ccc(F)cc2)c(OCc2ccncc2)cn1 [Compound 44, 4-(4-fluorophenyl)-5-(pyridin-4-ylmethoxy)picolinamide] | 239 | 0.42 | – | –
